Laboratory results reported in patent US4698338A, “7[2-(2-aminothiazol-4-yl)-2-benzyloximino]acetamido-3[4-al kyl-5-oxo-6-hydroxy-3,4-dihydro-1,2,4-triazin-3-yl]thiomethyl cephalosporins” (Eli Lilly and Company, priority 1986, dated 1987).
Values after ≈ are worked out from the molar mass of the structure shown. Like-named read-outs stand apart in the source and are kept apart here.

What was measured:
Experiment in all cases: standard agar dilution in vitro test
Format in all cases: cell-based
[1] = test system: Enterobacter aerogenes EB17; settings: Klebsiella aerogenes, read-out: Minimum Inhibitory Concentration
Source text: (§1) The antibacterial activity of the compounds of the formula 1 is illustrated by the data presented in Table 2 for two such compounds. The data presented are the minimum inhibitory concentrations (μg/ml) against representative pathogens obtained in the standard agar dilution in vitro test.

[2] = test system: Staphylococcus aureus V41; settings: read-out: Minimum Inhibitory Concentration
Source text: as §1

Escherichia coli TEM = settings: read-out: Minimum Inhibitory Concentration
Source text: as §1

[3] = test system: Streptococcus pneumoniae Park I; settings: read-out: Minimum Inhibitory Concentration
Source text: as §1

[4] = test system: Pseudomonas aeruginosa X239; settings: read-out: Minimum Inhibitory Concentration
Source text: as §1

[5] = test system: Enterobacter aerogenes C32; settings: Klebsiella aerogenes, read-out: Minimum Inhibitory Concentration
Source text: as §1

Salmonella typhi 1335 = settings: Salmonella enterica, read-out: Minimum Inhibitory Concentration
Source text: as §1

[6] = test system: Pseudomonas aeruginosa PS72; settings: read-out: Minimum Inhibitory Concentration
Source text: as §1

[7] = test system: Haemophilus influenzae C.L.; settings: read-out: Minimum Inhibitory Concentration
Source text: as §1

Shigella sonnei N9 = settings: read-out: Minimum Inhibitory Concentration
Source text: as §1

Salmonella typhi X514 = settings: Salmonella enterica, read-out: Minimum Inhibitory Concentration
Source text: as §1

[8] = test system: Staphylococcus aureus 513E; settings: read-out: Minimum Inhibitory Concentration
Source text: as §1

[9] = test system: Citrobacter freundii CF17; settings: read-out: Minimum Inhibitory Concentration
Source text: as §1

[10] = test system: Streptococcus pyogenes C203; settings: read-out: Minimum Inhibitory Concentration
Source text: as §1

Escherichia coli EC14 = test system: Escherichia coli EC14
Source text: as §1

Serratia marcescens SE3 = settings: read-out: Minimum Inhibitory Concentration
Source text: as §1

Proteus inconstans PR33 = settings: Providencia alcalifaciens
Source text: as §1

[11] = test system: Staphylococcus aureus X1.1; settings: read-out: Minimum Inhibitory Concentration
Source text: as §1

[12] = test system: Streptococcus Group D X66; settings: read-out: Minimum Inhibitory Concentration
Source text: as §1

Enterobacter cloacae EB5 = settings: read-out: Minimum Inhibitory Concentration
Source text: as §1

[13] = test system: Streptococcus Group D 2041; settings: GROUPD2041, read-out: Minimum Inhibitory Concentration
Source text: as §1

[14] = test system: Staphylococcus epidermidis 222; settings: read-out: Minimum Inhibitory Concentration
Source text: as §1

Proteus rettgeri C24 = settings: Providencia rettgeri
Source text: as §1

[15] = test system: Klebsiella pneumoniae X26; settings: read-out: Minimum Inhibitory Concentration
Source text: as §1

[16] = test system: Staphylococcus epidermidis EPi1; settings: read-out: Minimum Inhibitory Concentration
Source text: as §1

[17] = test system: Klebsiella pneumoniae KAE; settings: read-out: Minimum Inhibitory Concentration
Source text: as §1

[18] = test system: Pseudomonas aeruginosa PS18; settings: read-out: Minimum Inhibitory Concentration
Source text: as §1

Serratia marcescens X99 = settings: read-out: Minimum Inhibitory Concentration
Source text: as §1

[19] = test system: Staphylococcus aureus X400; settings: read-out: Minimum Inhibitory Concentration
Source text: as §1

[20] = test system: Acinetobacter calcoaceticus AC12; settings: read-out: Minimum Inhibitory Concentration
Source text: as §1

Escherichia coli N10 = settings: read-out: Minimum Inhibitory Concentration
Source text: as §1

[21] = test system: Pseudomonas aeruginosa X528; settings: read-out: Minimum Inhibitory Concentration
Source text: as §1

[22] = test system: Enterobacter cloacae 265A; settings: read-out: Minimum Inhibitory Concentration
Source text: as §1

[23] = test system: Klebsiella pneumoniae X68
Source text: as §1

Proteus morganii PR15 = settings: Morganella morganii, read-out: Minimum Inhibitory Concentration
Source text: as §1

[24] = test system: Haemophilus influenzae 76; settings: read-out: Minimum Inhibitory Concentration
Source text: as §1

Cn1nc(O)c(=O)nc1SCC1=C(C(=O)O)N2C(=O)[C@@H](NC(=O)/C(=N\OCc3ccc(O)cc3)c3csc(N)n3)[C@H]2SC1 [Test Compound A, 7β-[2-(2-Aminothiazol-4-yl)-2-(4-hydroxybenzyloxyimino)acetamido]-3-[(2,5-dihydro-6-hydroxy-2-methyl5-oxo-1,2,4-triazin-3-yl)thiomethyl]-3-cephem-4carboxylic acid]
MIC [1]: 0.5 µg/mL (≈ 0.773 µM) | MIC [2]: 8 µg/mL (≈ 12.4 µM) | MIC (Escherichia coli TEM): 0.03 µg/mL (≈ 0.0464 µM) | MIC [3]: < 0.008 µg/mL | MIC [4]: 8 µg/mL (≈ 12.4 µM) | MIC [5]: 0.25 µg/mL (≈ 0.387 µM) | MIC (Salmonella typhi 1335): 0.25 µg/mL (≈ 0.387 µM) | MIC [6]: 64 µg/mL (≈ 99 µM) | MIC [7]: 0.03 µg/mL (≈ 0.0464 µM) | MIC (Shigella sonnei N9): 0.125 µg/mL (≈ 0.193 µM) | MIC (Salmonella typhi X514): 0.125 µg/mL (≈ 0.193 µM) | MIC [8]: 8 µg/mL (≈ 12.4 µM) | MIC [9]: 4 µg/mL (≈ 6.19 µM) | MIC [10]: < 0.008 µg/mL | MIC (Escherichia coli EC14; Escherichia coli, EC14, read-out: Minimum Inhibitory Concentration): 0.125 µg/mL (≈ 0.193 µM) | MIC (Serratia marcescens SE3): 4 µg/mL (≈ 6.19 µM) | MIC (Proteus inconstans PR33; PR33, read-out: Minimum Inhibitory Concentration): 0.125 µg/mL (≈ 0.193 µM) | MIC [11]: 1 µg/mL (≈ 1.55 µM) | MIC [12]: 128 µg/mL (≈ 198 µM) | MIC (Enterobacter cloacae EB5): 0.5 µg/mL (≈ 0.773 µM) | MIC [13]: 1 µg/mL (≈ 1.55 µM) | MIC [14]: 2 µg/mL (≈ 3.09 µM) | MIC (Proteus rettgeri C24; C24, read-out: Minimum Inhibitory Concentration): 0.125 µg/mL (≈ 0.193 µM) | MIC [15]: 0.06 µg/mL (≈ 0.0928 µM) | MIC [16]: 8 µg/mL (≈ 12.4 µM) | MIC [17]: 16 µg/mL (≈ 24.7 µM) | MIC [18]: 16 µg/mL (≈ 24.7 µM) | MIC (Serratia marcescens X99): 0.5 µg/mL (≈ 0.773 µM) | MIC [19]: 16 µg/mL (≈ 24.7 µM) | MIC [20]: 16 µg/mL (≈ 24.7 µM) | MIC (Escherichia coli N10): 0.25 µg/mL (≈ 0.387 µM) | MIC [21]: 128 µg/mL (≈ 198 µM) | MIC [22]: 128 µg/mL (≈ 198 µM) | MIC ([23]; Klebsiella pneumoniae, X68, read-out: Minimum Inhibitory Concentration): 0.125 µg/mL (≈ 0.193 µM) | MIC (Proteus morganii PR15): 1 µg/mL (≈ 1.55 µM)

Cn1nc(O)c(=O)nc1SCC1=C(C(=O)O)N2C(=O)[C@@H](NC(=O)/C(=N\OCc3cc(Cl)ccc3Cl)c3csc(N)n3)[C@H]2SC1 [Test Compound B, 7β-[2-(2-Aminothiazol-4-yl)-2-(2,5-dichlorobenzyloxyimino)acetamido]-3-[(2,5-dihydro-6-hydroxy-2-methyl-5-oxo-1,2,4-triazin-3-yl)thiomethyl]-3-cephem-4-carboxylic acid]
MIC [1]: 1 µg/mL (≈ 1.43 µM) | MIC [2]: 4 µg/mL (≈ 5.72 µM) | MIC (Escherichia coli TEM): 0.06 µg/mL (≈ 0.0858 µM) | MIC [3]: < 0.008 µg/mL | MIC [4]: 8 µg/mL (≈ 11.4 µM) | MIC [5]: 0.25 µg/mL (≈ 0.357 µM) | MIC (Salmonella typhi 1335): 1 µg/mL (≈ 1.43 µM) | MIC [6]: 16 µg/mL (≈ 22.9 µM) | MIC [7]: 0.03 µg/mL (≈ 0.0429 µM) | MIC (Shigella sonnei N9): 0.5 µg/mL (≈ 0.715 µM) | MIC (Salmonella typhi X514): 0.25 µg/mL (≈ 0.357 µM) | MIC [8]: 4 µg/mL (≈ 5.72 µM) | MIC [9]: 2 µg/mL (≈ 2.86 µM) | MIC [10]: < 0.008 µg/mL | MIC (Escherichia coli EC14; Escherichia coli EC14, agar dilution, read-out: Minimum Inhibitory Concentration): 0.25 µg/mL (≈ 0.357 µM) | MIC (Serratia marcescens SE3): 2 µg/mL (≈ 2.86 µM) | MIC (Proteus inconstans PR33; Proteus inconstans PR33, agar dilution, read-out: Minimum Inhibitory Concentration): 0.25 µg/mL (≈ 0.357 µM) | MIC [11]: 0.5 µg/mL (≈ 0.715 µM) | MIC [12]: > 128 µg/mL | MIC (Enterobacter cloacae EB5): 0.25 µg/mL (≈ 0.357 µM) | MIC [13]: 0.5 µg/mL (≈ 0.715 µM) | MIC [14]: 0.5 µg/mL (≈ 0.715 µM) | MIC [24]: 0.015 µg/mL (≈ 0.0214 µM) | MIC (Proteus rettgeri C24; Proteus rettgeri C24, agar dilution, read-out: Minimum Inhibitory Concentration): 0.5 µg/mL (≈ 0.715 µM) | MIC [15]: 0.06 µg/mL (≈ 0.0858 µM) | MIC [16]: 8 µg/mL (≈ 11.4 µM) | MIC [17]: 16 µg/mL (≈ 22.9 µM) | MIC [18]: 32 µg/mL (≈ 45.7 µM) | MIC (Serratia marcescens X99): 1 µg/mL (≈ 1.43 µM) | MIC [19]: 32 µg/mL (≈ 45.7 µM) | MIC [20]: 2 µg/mL (≈ 2.86 µM) | MIC (Escherichia coli N10): 0.25 µg/mL (≈ 0.357 µM) | MIC [21]: 64 µg/mL (≈ 91.5 µM) | MIC [22]: 128 µg/mL (≈ 183 µM) | MIC ([23]; Klebsiella pneumoniae X68, agar dilution, read-out: Minimum Inhibitory Concentration): 0.25 µg/mL (≈ 0.357 µM) | MIC (Proteus morganii PR15): 0.5 µg/mL (≈ 0.715 µM)
